Measurements published in US20120214822A1 (ASTRAZENECA AB, priority 2007, published 2012).

Biological target: human active recombinant p38α-6His tagged (Homo sapiens, UniProt Q16539)
Assay: P38 Alpha Enzyme Assay (AlphaScreen, biotinylated-ATF2 substrate);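 note: 0.5 nM final p38α, reaction started with ATP and run 45 min at 37 °C, phospho-ATF2 read by antibody-based AlphaScreen, background wells quenched with EDTA before ATP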
Format: biochemical
Details: p38 alpha enzyme inhibition; means of replicate determinations; 4 h pre-incubation at 37° C.; SD of assay 0.2-0.3 log units

Sequence of human active recombinant p38α-6His tagged (Q16539 whole entry): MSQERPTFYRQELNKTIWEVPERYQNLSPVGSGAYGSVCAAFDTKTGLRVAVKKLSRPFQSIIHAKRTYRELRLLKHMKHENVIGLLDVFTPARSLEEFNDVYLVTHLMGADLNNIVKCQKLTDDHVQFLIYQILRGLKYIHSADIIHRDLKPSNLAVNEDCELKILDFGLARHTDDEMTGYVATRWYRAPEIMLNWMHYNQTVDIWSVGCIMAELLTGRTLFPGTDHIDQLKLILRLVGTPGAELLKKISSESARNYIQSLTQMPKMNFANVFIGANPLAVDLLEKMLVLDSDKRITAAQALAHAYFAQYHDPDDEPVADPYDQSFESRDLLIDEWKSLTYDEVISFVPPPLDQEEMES

| SMILES | pIC50 |
| --- | --- |
| COc1ccccc1[C@H](Nc1nccn(-c2cc(C(=O)NC3CC3)ccc2C)c1=O)[C@@H](C)CO [Example 274, N-Cyclopropyl-3-[3-[[(1R,2R)-3-hydroxy-1-(2-methoxyphenyl)-2-methylpropyl]amino]-2-oxo-1(2H)-pyrazinyl]-4-methyl-benzamide] | 8.7 |
| Cc1ccc(C(=O)NC2CC2)cc1-n1ccnc(NC(C)(C)c2ccccc2O)c1=O [Example 134, N-Cyclopropyl-3-[3-[[1-(2-hydroxyphenyl)-1-methylethyl]amino]-2-oxo-1(2H)-pyrazinyl]-4-methyl-benzamide] | 8.9 |
| Cc1ccc(C(=O)NC2CC2)cc1-n1ccnc(NC(C)(C)c2ccccc2OC2CCNCC2)c1=O [Example 219, N-Cyclopropyl-4-methyl-3-[3-[[1-methyl-1-[2-(4-piperidinyloxy)phenyl]ethyl]amino]-2-oxo-1(2H)-pyrazinyl]-benzamide] | 9.3 |
| Cc1ccc(C(=O)NC2CC2)cc1-n1ccnc(N[C@@H](c2cccc3ccccc23)[C@@H](C)CN2CCCC2)c1=O [Example 144, N-Cyclopropyl-4-methyl-3-[3-[[(1R,2S)-2-methyl-1-(1-naphthalenyl)-3-(1-pyrrolidinyl)propyl]amino]-2-oxo-1(2H)-pyrazinyl]-benzamide] | 7.9 |
| Cc1c(F)cc(C(=O)NC2CC2)cc1-n1ccnc(NC(C)(C)c2ccccc2OCCNC(C)C)c1=O [Example 254, N-Cyclopropyl-3-fluoro-4-methyl-5-[3-[[1-methyl-1-[2-[2-[(1-methylethyl)amino]ethoxy]phenyl]ethyl]amino]-2-oxo-1(2H)-pyrazinyl]-benamide] | 10.2 |
| Cc1ccc(C(=O)NC2CC2)cc1-n1ccnc(N(C)CCc2ccccc2)c1=O [Example 66, N-Cyclopropyl-4-methyl-3-[3-[methyl(2-phenylethyl)amino]-2-oxo-1(2H)-pyrazinyl]benzamide] | 6.5 |
| Cc1ccc(C(=O)NC2CC2)cc1-n1ccnc(NC(C)(C)c2ccccc2OCCN2CCOCC2)c1=O [Example 203, N-Cyclopropyl-4-methyl-3-[3-[[1-methyl-1-[2-[2-(4-morpholinyl)ethoxy]phenyl]ethyl]amino]-2-oxo-1(2H)-pyrazinyl]-benzamide] | 8.9 |
| Cc1ccc(C(=O)NC2CC2)cc1-n1ccnc(N[C@H](CC(=O)NC2CC2)c2ccccc2)c1=O [Example 89] | 7.6 |
| Cc1ccc(C(=O)NC2CC2)cc1-n1ccnc(NCC2CNc3ccccc3C2)c1=O (centres unmarked) [Example 29, N-Cyclopropyl-4-methyl-3-[2-oxo-3-[[(1,2,3,4-tetrahydro-3-quinolinyl)methyl]amino]-1(2H)-pyrazinyl]-benzamide] | 7 |
| CCNCCOc1ccccc1C1(Nc2nccn(-c3cc(C(=O)NC4CC4)ccc3C)c2=O)CC1 [Example 168, N-Cyclopropyl-4-methyl-3-[3-[[1-[2-[2-(ethylamino)ethoxy]phenyl]cyclopropyl]amino]-2-oxo-1(2H)-pyrazinyl]-benzamide] | 9.9 |
| Cc1ccc(C(=O)NC2CC2)cc1-n1ccnc(NC(C)(C)c2ccccc2OCCC2CCNCC2)c1=O [Example 217, N-Cyclopropyl-4-methyl-3-[3-[[1-methyl-1-[2-[2-(4-piperidinyl)ethoxy]phenyl]ethyl]amino]-2-oxo-1(2H)-pyrazinyl]-benzamide] | 9.6 |
| CNC[C@H](O)COc1ccccc1C1(Nc2nccn(-c3cc(C(=O)NC4CC4)ccc3C)c2=O)CC1 [Example 304, N-Cyclopropyl-3-[3-{[1-(2-{[(2S)-2-hydroxy-3-(methylamino)propyl]oxy}phenyl)cyclopropyl]amino}-2-oxopyrazin-1(2H)-yl]-4-methylbenzamide] | 10.2 |
| Cc1ccccc1CNc1nccn(-c2cc(C(=O)NC3CC3)ccc2C)c1=O [Example 39, N-Cyclopropyl-4-methyl-3-[3-[[(2-methylphenyl)methyl]amino]-2-oxo-1(2H)-pyrazinyl]-benzamide] | 7.5 |
| Cc1ccc(C(=O)NC2CC2)cc1-n1ccnc(NC(C)(C)c2ccccc2OCCCNCC(F)(F)F)c1=O [Example 207, N-Cyclopropyl-4-methyl-3-[3-[[1-methyl-1-[2-[3-[(2,2,2-trifluoroethyl)amino]propoxy]phenyl]ethyl]amino]-2-oxo-1(2H)-pyrazinyl]-benzamide] | 8.9 |
| Cc1ccc(C(=O)NC2CC2)cc1-n1ccnc(N[C@@H](c2ccccc2)[C@@H](C)CN2CCC(F)CC2)c1=O [Example 174, N-Cyclopropyl-3-[3-[[(1R,2S)-3-(4-fluoro-1-piperidinyl)-2-methyl-1-phenylpropyl]amino]-2-oxo-1(2H)-pyrazinyl]-4-methyl-benzamide] | 8.9 |
| Cc1ccc(C(=O)NC2CC2)cc1-n1ccnc(NC(CCO)c2ccccc2)c1=O (centres unmarked) [Example 83, N-Cyclopropyl-3-[3-[(3-hydroxy-1-phenylpropyl)amino]-2-oxo-1(2H)-pyrazinyl]-4-methyl-benzamide] | 7.7 |

| SMILES | pIC50 |
| --- | --- |
| Cc1c(F)cc(C(=O)NC2CC2)cc1-n1ccnc(NC(C)(C)c2ccccc2OCCN)c1=O [Example 311, 3-[3-({1-[2-(2-Aminoethoxy)phenyl]-1-methylethyl}amino)-2-oxopyrazin-1(2H)-yl]-N-cyclopropyl-5-fluoro-4-methylbenzamide] | 10.1 |
| Cc1ccc(C(=O)NC2CC2)cc1-n1ccnc(N2CCCC2Cc2ccccc2F)c1=O (centres unmarked) [Example 75, N-Cyclopropyl-3-[3-[2-[(2-fluorophenyl)methyl]-1-pyrrolidinyl]-2-oxo-1(2H)-pyrazinyl]-4-methyl-benzamide] | 7.1 |
| Cc1ccc(C(=O)NC2CC2)cc1-n1ccnc(N[C@@H](c2ccccc2)[C@@H](C)CN2CCC(C)CC2)c1=O [Example 170, N-Cyclopropyl-4-methyl-3-[3-[[(1R,2S)-2-methyl-3-(4-methyl-1-piperidinyl)-1-phenylpropyl]amino]-2-oxo-1(2H)-pyrazinyl]-benzamide] | 8.9 |
| Cc1ccc(C(=O)NC2CC2)cc1-n1ccnc(NC(C)(C)c2ccccc2OCCNC(C)C)c1=O [Example 212, N-Cyclopropyl-4-methyl-3-[3-[[1-methyl-1-[2-[2-[(1-methylethyl)amino]ethoxy]phenyl]ethyl]amino]-2-oxo-1(2H)-pyrazinyl]-benzamide] | 9.6 |
| Cc1ccc(C(=O)NC2CC2)cc1-n1ccnc(NC2(c3ccccc3OCCN3CCN(CCO)CC3)CC2)c1=O [Example 232, N-Cyclopropyl-3-[3-[[1-[2-[2-[4-(2-hydroxyethyl)-1-piperazinyl]ethoxy]phenyl]cyclopropyl]amino]-2-oxo-1(2H)-pyrazinyl]-4-methyl-benzamide] | 9.1 |
| Cc1ccc(C(=O)NC2CC2)cc1-n1ccnc(NCc2cccc3c2OCCO3)c1=O [Example 91, N-Cyclopropyl-3-[3-[[(2,3-dihydro-1,4-benzodioxin-5-yl)methyl]amino]-2-oxo-1(2H)-pyrazinyl]-4-methyl-benzamide] | 7.9 |
| COCCNCCOc1ccccc1C(C)(C)Nc1nccn(-c2cc(C(=O)NC3CC3)ccc2C)c1=O [Example 210, N-Cyclopropyl-3-[3-[[1-[2-[2-[(2-methoxyethyl)amino]ethoxy]phenyl]-1-methylethyl]amino]-2-oxo-1(2H)-pyrazinyl]-4-methyl-benzamide] | 9.5 |
| CCNCCOc1ccccc1C(C)(C)Nc1nccn(-c2cc(C(=O)NC3CC3)cc(F)c2C)c1=O [Example 252, N-Cyclopropyl-3-[3-[[1-[2-[2-(ethylamino)ethoxy]phenyl]-1-methylethyl]amino]-2-oxo-1(2H)-pyrazinyl]-5-fluoro-4-methyl-benzamide] | 10.1 |
| Cc1ccc(C(=O)NC2CC2)cc1-n1ccnc(NCc2ccccc2O)c1=O [Example 68, N-Cyclopropyl-3-[3-[[(2-hydroxyphenyl)methyl]amino]-2-oxo-1(2H)-pyrazinyl]-4-methyl-benzamide] | 7.6 |
| CNCCOc1ccccc1C(C)(C)Nc1nccn(-c2cc(C(=O)NC(C)C)ccc2C)c1=O [Example 223, 4-Methyl-N-(1-methylethyl)-3-[3-[[1-methyl-1-[2-[2-(methylamino)ethoxy]phenyl]ethyl]amino]-2-oxo-1(2H)-pyrazinyl]-benzamide] | 8.1 |
| Cc1ccc(C(=O)NC2CC2)cc1-n1ccnc(N[C@@H](c2ccccc2)[C@@H](C)CN2CCCC2)c1=O [Example 142, N-Cyclopropyl-4-methyl-3-[3-[[(1R,2S)-2-methyl-1-phenyl-3-(1-pyrrolidinyl)propyl]amino]-2-oxo-1(2H)-pyrazinyl]-benzamide] | 8.8 |
| Cc1cccc([C@H](Nc2nccn(-c3cc(C(=O)NC4CC4)ccc3C)c2=O)[C@@H](C)CN2CCCC2)c1 [Example 276, N-Cyclopropyl-3-[3-[[(1R,2S)-1-(3-methylphenyl)-2-methyl-3-(1-pyrrolidinyl)propyl]amino]-2-oxo-1(2H)-pyrazinyl]-4-methyl-benzamide] | 8.8 |
| Cc1ccc(C(=O)NC2CC2)cc1-n1ccnc(N[C@@H](c2ccccc2)[C@@H](C)CNC2CC2)c1=O [Example 183, N-Cyclopropyl-3-[3-[[(1R,2S)-3-(cyclopropylamino)-2-methyl-1-phenylpropyl]amino]-2-oxo-1(2H)-pyrazinyl]-4-methyl-benzamide] | 9 |
| CCNC(=O)c1ccc(C)c(-n2ccnc(NCc3ccccc3)c2=O)c1 [Example 115, N-Ethyl-4-methyl-3-[2-oxo-3-[(phenylmethyl)amino]-1(2H)-pyrazinyl]-benzamide] | 6.9 |
| CONC(=O)c1ccc(C)c(-n2ccnc(NCc3ccccc3CN3CCN(C)CC3)c2=O)c1 [Example 111, N-Methoxy-4-methyl-3-[3-[[[2-[(4-methyl-1-piperazinyl)methyl]phenyl]methyl]amino]-2-oxo-1(2H)-pyrazinyl]-benzamide] | 7.1 |
| Cc1ccc(CCNc2nccn(-c3cc(C(=O)NC4CC4)ccc3C)c2=O)cc1 [Example 74, N-Cyclopropyl-4-methyl-3-[3-[[2-(4-methylphenyl)ethyl]amino]-2-oxo-1(2H)-pyrazinyl]-benzamide] | 6.7 |
